Assay results published in publication PMC4822341 (Cell Discovery, 2015).

What was measured:
MR = target: T1, MR (Homo sapiens, UniProt P08235); assay: MR reporter assay (off-target activity); assay type: cell-based; conditions: steroid 1 μM; percent of 1 μM corticosterone
T1 construct: expressed in transfected cells; host or cells: AD293
T1 sequence (P08235 1-984): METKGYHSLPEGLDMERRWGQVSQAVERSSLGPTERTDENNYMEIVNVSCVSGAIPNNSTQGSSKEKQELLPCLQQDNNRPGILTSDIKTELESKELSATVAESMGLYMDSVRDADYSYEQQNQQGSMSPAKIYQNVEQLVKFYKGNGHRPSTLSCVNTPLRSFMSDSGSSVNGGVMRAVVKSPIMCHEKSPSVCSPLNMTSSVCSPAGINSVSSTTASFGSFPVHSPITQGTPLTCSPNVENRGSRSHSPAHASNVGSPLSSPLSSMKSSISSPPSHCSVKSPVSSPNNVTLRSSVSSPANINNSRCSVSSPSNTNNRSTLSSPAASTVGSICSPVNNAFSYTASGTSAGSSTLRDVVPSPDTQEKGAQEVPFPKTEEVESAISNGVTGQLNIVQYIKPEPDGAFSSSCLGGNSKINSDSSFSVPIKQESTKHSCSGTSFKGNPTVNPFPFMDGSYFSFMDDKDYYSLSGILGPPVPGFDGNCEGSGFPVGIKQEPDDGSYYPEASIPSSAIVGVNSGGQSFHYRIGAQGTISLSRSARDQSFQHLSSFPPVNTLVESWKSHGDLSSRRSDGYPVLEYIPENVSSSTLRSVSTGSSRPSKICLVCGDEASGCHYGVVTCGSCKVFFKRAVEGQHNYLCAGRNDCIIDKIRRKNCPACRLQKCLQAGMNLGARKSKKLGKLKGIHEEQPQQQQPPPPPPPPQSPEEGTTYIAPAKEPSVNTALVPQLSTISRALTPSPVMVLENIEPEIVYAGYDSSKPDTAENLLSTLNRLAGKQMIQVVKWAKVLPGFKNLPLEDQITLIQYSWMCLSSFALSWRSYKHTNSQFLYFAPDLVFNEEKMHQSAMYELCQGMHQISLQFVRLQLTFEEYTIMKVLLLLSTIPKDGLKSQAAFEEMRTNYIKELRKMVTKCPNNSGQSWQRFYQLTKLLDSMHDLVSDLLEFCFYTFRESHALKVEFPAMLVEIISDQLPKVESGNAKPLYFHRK
Procedure: Similar to previous reports, for induction 100 ng pHHLuc (MMTV-Luc) plasmid, 0.1 ng pRShGR together with 5 ng phRGtkRenilla were transfected by X-tremeGENE 9 (Roche) into AD293 cells per well in 24-well plate. For transrepression, 10 ng AP-1-Luc or 10ng pNF-κB-luc, 100 ng pRShGR and 5 ng phRGtkRenilla were transfected into AD293 cells per well. We used the same transfection protocol for the MR and PR assays, except of the use of 0.1 ng MR or PR plasmid to substitute GR. One day after transfection, for induction, cells were directly treated by steroids for 16 h; for repression, cells were treated with either PMA at 0.6 ng ml^–1 (for AP-1 reporter) or TNFα at 2 ng ml^–1 (for NF-κB reporter), together with various steroids. Cells were collected by addition of 1× Passive Lysis Buffer (Promega, Madison, WI, USA), and luciferase activity was assayed by the Dual-Glo Luciferase system (Promega). Data were plotted as firefly luciferase activity normalized to Renilla luciferase activity in Relative Luciferase Units.

[1] = Spleen size and weight (spleen atrophy); assay type: in vivo, DBA/1 mice; conditions: 2 weeks
Procedure: Figure 5 Examination of side effects of VSGC12 and FF at the effective dose. (a) Body weight of DBA/1 mice treated with the indicated daily dose of steroids for 2 weeks. Mice body weight was measured at day 0, 7 and 14. (b) Insulin-tolerance test of mice treated with the indicated daily doses of steroids for 7 days. Glucose level was measured at day 7 at various time points before and after insulin injection. Data were plotted as percent of the glucose level of time 0. (c) Plasma insulin levels of mice treated with the indicated daily doses of steroid for 7 days. (d) Spleen size and weight for mice treated with the indicated daily doses of steroid for 2 weeks. (e) Cortical bone thickness of femurs of mice treated with the indicated daily doses of steroid for 2 weeks. (f) Bone stiffness of femurs of mice treated with the indicated daily doses of steroid for 2 weeks. Mouse strain: DBA/1. Each treatment n=5, error bars indicate s.e.m., *P<0.05; **P<0.01; ***P<0.001.

[2] = test system: IL-6 release from A549 cells; assay: Cytokine inhibition assay, IL-6 release from A549 cells; assay type: cell-based; conditions: Homo sapiens, TNFα 2 ng ml^-1, read-out: IC50 (suppression of IL-6 release)
Procedure: A549 cells into 24-well plates were split at 40 000 cells/well. After 1 day growth, cells were treated with various steroids 1 h before overnight induction of inflammation by 2 ng ml^–1 TNFα according to literature. Sixteen hours after treatment, cell culture supernatants were subjected to anti-IL-6 Elisa (R&D Quantikine Elisa Human IL-6 Kit) according to the manual.

**Q.** Which results are given for CON(C)C(=O)C1(OC(=O)c2ccco2)C(C)CC2C3CC(F)C4=Cc5c(cnn5-c5ccccc5)CC4(C)C3(F)C(O)CC21C (stereo not shown) [VSGC12]?
**A.** MR activity (MR): higher MR activity than VSG22 and FP, but a lower activity than MF and a similar activity (difference not statistically significant) as FF; atrophy of the spleen ([1]; 0.0625 mg kg^-1 daily): only a mild change in spleen size; atrophy of the spleen ([1]; 0.25 mg kg^-1 daily): less severe atrophy; IC50 [2]: 0.05 nM
